# How the values were obtained:
# GalNAc-T2 lectin domain = biological target: T1, GalNAc-T2 lectin domain (Homo sapiens, UniProt Q10471); test: Inhibition of GalNAc-T2 lectin domain (T2ld) binding to GalNAc-MUC1 glycopeptide, ELISA
# T1 construct: comprises amino acid residues 408-571 of GALNT2; made in house; host or cells: baculovirus (pAcGP67-A), virus made in Sf9, protein produced in High Five insect cells
# T1 sequence (Q10471 408-571): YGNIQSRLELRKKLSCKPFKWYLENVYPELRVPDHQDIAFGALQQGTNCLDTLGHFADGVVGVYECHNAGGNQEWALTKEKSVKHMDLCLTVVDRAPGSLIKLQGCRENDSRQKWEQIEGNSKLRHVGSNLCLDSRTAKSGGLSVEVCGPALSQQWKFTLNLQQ
# Description: (§1) Direct binding ELISA assay was developed as follows: Polystyrene microtiter plates (Maxisorb, Nunc, Denmark) were coated with peptides or enzymatically glycosylated glycopeptides in PBS overnight at 4° C. Plates were washed and blocked with 0.1% Tween20 and 0.2% BSA in PBS for 1 h at room temperature, followed by incubation with biotinylated proteins in PBS with 0.05% Tween20 for 2 h at room temperature. After four washes with PBS, plates were incubated with 1:2,000 dilution streptavidin-HRP (Sigma) in PBS for 30 min at room temperature and washed four times with PBS. Development was performed with 0.5 mg/ml o-phenylenediamine and 0.02% H2O2 at room temperature for 15 min, and reaction stopped by adding 100 μl/well of 0.5 N H2SO4. Competitive inhibition assays were done at end-point titers of GalNAc-transferase proteins with one hour preincubations with inhibitor.
# (§2) In binding studies using lectins without biotinylation antibodies to the HIS-tag and the T7-tag, or in some experiments antibodies raised to GalNAc-T2 and -T4 enzymes were used to detect binding.
# (§3) Inhibition experiments were used to further define the binding specificity of GalNAc-T2 and -T4 secreted soluble enzymes as well as lectin domains compared to Helix Pomatia lectin (Table IV).
# GalNAc-T7 = GalNAc-T7 (Homo sapiens, UniProt Q86SF2); settings: mM concentrations; cited from earlier work
# GalNAc-T4 lectin domain = biological target: T2, GalNAc-T4 lectin domain (Homo sapiens, UniProt Q8N4A0); test: Inhibition of GalNAc-T4 lectin domain (T4ld) binding to GalNAc-MUC1 glycopeptide, ELISA
# T2 construct: comprises amino acid residues 405-578 of GALNT4; made in house; host or cells: baculovirus (pAcGP67-A), virus made in Sf9, protein produced in High Five insect cells
# Description: as §1, §2, §3
# GalNAc-T4 = GalNAc-T4 (Homo sapiens, UniProt Q8N4A0); settings: mM concentrations; cited from earlier work
# [1] = tested on: MUC1 in CHO1d1D/MUC1F-clone2 cells; test: MUC1 expression in cell lysates, immunoprecipitation and SDS-PAGE western blot (FIGS. 12-15); format: cell-based, Chinese Hamster; settings: 2 mM, 48 hours, 5E5 blot
# [2] = biological target: T3, secreted soluble GalNAc-T2 (Homo sapiens, UniProt Q10471); test: Inhibition of secreted soluble GalNAc-T2 (sT2) binding to GalNAc-MUC1 glycopeptide, ELISA
# T3 construct: 6xHis (N); thrombin cleavage site (N); T7 antibody site (N); made in house; host or cells: baculovirus (pAcGP67A), High Five insect cells
# Description: as §1, §3
# O-glycan processing = settings: cited from earlier work
# HT-29 MTX cells = test: Viscosity of media from HT-29 MTX cells; format: cell-based, human; settings: 5 mM; data not shown
# Text: In order to evaluate GalNAcβ-benzyl as an inhibitor of mucin glycosylation and secretion we used the cultured colon carcinoma cells of mucin secreting phenotypes: HT-29 metotrexate (MTX) cells selected from the HT-29 cell line by culture in the presence of MTX (kind gift from G. Huet, France). The HT-29 MTX cells were selected to yield a goblet cell like phenotype with constitutive production of MUC5AC. In order to ensure proper goblet cell differentiation the HT29MTX cell line were continuously grown up to 21 days in the presence of 5 mM GalNAcα-benzyl, 5 mM GalNAcβ-benzyl, 5 mM GlcNAcα-benzyl and without inhibitor using culture conditions as described in Hennebicq-Reig et al. (Permanent exposure of mucin-secreting HT-29 cells to benzyl-N-acetyl-alpha-D-galactosaminide induces abnormal O-glycosylation of mucins and inhibits constitutive and stimulated MUC5AC secretion. Biochem J. 1998; 334:283-95). […] Furthermore the viscosity of the media from cells with and without inhibitor was evaluated using viscosity micro-measurement.
# β3Gal-T5 = β3Gal-T5 (Homo sapiens, UniProt Q9Y2C3); settings: cited from earlier work
# [3] = biological target: human GalNAc-T4 (UDP-GalNAc:polypeptide N-acetylgalactosaminyltransferase T4), secreted soluble enzyme (sT4), wild type (Homo sapiens, UniProt Q8N4A0); settings: binding to GalNAc-MUC1 glycopeptide
# Description: The pH of 1 ml purified protein (0.3 mg/ml) in PBS was adjusted to pH 9 with 1 M NaOH and 40 μl N-hydroxy-succinimidobiotin (Sigma) dissolved in DMF (10 mg/ml) was added. The solution was mixed end-over-end for 2 hours at room temperature, and dialyzed three times against PBS and an equal volume of glycerol was added. The biotinylated proteins were stored at −20° C. in 50% glycerol until use.
# Glycopeptides were purified by C-18 reverse phase HPLC. Peptides were custom synthesized by Neosystems (Strasbourg). Biotinylated Helix Pomatia lectin (HPA) was from KemEnTec (Denmark). Anti-MUC1 HMFG2 monoclonal antibody was a generous gift from Joyce Taylor-Papadimitriou.
# as §1, with “Development was performed with 0.5 mg/ml o-phenylenediamine and 0.02% H2O2 at room temperature for 15 min, and reaction stopped by adding 100 μl/well of 0.5 N H2SO4. Competitive inhibition assays were done at end-point titers of GalNAc-transferase proteins with one hour preincubations with inhibitor.” left out
# β3Gal-T5, sequence (Q9Y2C3 whole entry, species assumed): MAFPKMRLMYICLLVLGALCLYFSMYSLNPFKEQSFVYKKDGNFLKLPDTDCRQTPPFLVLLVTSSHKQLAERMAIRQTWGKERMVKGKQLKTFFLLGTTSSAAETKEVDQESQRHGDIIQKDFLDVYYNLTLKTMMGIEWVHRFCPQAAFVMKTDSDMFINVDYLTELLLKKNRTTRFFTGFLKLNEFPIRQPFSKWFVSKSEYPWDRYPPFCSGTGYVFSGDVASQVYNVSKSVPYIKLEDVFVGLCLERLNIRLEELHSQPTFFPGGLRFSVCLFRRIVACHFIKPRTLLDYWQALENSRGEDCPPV
# T3 sequence (Q10471 52-571 limits assumed): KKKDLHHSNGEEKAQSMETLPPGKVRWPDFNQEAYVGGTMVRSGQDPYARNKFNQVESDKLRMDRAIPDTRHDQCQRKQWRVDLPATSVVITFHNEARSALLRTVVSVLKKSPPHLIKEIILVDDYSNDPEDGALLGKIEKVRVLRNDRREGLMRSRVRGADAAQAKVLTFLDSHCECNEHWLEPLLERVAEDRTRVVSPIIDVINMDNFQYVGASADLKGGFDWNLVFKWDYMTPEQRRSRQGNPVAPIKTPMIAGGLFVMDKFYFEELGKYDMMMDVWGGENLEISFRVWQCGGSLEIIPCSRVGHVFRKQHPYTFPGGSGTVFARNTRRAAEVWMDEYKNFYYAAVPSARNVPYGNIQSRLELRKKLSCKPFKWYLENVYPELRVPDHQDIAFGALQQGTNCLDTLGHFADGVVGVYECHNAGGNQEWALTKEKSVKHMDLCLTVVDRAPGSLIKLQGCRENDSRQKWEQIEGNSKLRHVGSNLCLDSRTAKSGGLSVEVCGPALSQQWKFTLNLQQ
# human GalNAc-T4 (UDP-GalNAc:polypeptide N-acetylgalactosaminyltransferase T4), secreted soluble enzyme (sT4), wild type, sequence (Q8N4A0 36-578 limits assumed): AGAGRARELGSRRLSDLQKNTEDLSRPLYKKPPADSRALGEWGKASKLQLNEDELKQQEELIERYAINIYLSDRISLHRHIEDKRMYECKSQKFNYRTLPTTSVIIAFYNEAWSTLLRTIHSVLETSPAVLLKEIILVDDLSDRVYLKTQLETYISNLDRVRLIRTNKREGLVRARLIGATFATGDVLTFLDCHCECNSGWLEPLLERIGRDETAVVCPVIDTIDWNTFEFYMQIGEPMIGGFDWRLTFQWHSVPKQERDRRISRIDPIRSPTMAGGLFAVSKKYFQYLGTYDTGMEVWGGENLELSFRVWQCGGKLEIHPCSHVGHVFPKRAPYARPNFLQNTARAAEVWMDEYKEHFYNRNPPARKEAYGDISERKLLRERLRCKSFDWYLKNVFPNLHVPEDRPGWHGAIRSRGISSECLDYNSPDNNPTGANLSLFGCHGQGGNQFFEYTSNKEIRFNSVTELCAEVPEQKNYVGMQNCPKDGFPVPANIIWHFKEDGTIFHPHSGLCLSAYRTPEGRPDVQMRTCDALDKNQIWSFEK
# GalNAc-T7, sequence (Q86SF2 whole entry, the tested form may be a part): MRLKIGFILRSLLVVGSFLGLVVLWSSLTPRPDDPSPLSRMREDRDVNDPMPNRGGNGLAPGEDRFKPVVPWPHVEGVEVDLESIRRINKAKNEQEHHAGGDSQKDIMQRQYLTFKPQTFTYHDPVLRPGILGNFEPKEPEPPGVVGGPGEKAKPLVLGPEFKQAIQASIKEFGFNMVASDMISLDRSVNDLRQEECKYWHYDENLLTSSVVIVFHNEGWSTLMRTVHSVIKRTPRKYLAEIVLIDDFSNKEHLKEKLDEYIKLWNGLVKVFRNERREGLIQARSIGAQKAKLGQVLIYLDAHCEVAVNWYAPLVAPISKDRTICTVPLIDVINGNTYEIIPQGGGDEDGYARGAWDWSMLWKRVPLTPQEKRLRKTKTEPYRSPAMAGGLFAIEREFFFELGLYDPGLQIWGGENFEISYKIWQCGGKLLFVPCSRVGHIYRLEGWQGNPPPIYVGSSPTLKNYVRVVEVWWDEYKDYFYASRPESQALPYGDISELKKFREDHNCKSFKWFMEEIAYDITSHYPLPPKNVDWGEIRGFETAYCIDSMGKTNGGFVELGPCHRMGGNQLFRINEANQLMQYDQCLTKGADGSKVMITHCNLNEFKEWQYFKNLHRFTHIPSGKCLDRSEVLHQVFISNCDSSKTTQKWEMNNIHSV
# GalNAc-T4, sequence (Q8N4A0 whole entry): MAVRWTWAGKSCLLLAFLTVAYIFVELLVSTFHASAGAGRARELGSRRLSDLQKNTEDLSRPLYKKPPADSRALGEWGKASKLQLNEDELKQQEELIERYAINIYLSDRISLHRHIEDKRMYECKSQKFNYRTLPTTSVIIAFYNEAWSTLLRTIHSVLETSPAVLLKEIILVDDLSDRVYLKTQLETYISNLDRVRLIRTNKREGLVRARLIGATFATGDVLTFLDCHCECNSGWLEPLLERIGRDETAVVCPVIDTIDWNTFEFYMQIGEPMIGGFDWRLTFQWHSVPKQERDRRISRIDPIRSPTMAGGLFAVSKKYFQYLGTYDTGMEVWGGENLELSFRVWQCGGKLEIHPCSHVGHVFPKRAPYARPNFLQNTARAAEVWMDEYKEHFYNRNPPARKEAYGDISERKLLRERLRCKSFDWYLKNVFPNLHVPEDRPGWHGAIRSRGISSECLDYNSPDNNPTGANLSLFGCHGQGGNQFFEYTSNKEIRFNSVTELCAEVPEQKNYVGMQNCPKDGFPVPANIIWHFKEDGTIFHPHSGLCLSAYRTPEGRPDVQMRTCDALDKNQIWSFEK
# T2 sequence (Q8N4A0 405-578): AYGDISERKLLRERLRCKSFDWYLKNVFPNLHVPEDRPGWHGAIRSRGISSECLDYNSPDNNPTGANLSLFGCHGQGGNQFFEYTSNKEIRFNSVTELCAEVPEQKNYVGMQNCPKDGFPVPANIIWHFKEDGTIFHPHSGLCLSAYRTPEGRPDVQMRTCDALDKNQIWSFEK
structure (smiles),measurement,setting,value
"CC(=O)N[C@H]1[C@@H](OCc2ccccc2)O[C@H](CO)[C@H](O)[C@@H]1O [BzlαGalNAc, benzyl-N-acetyl-alpha-D-galactosaminide]",IC50,GalNAc-T2 lectin domain,20 mM
same,inhibition of lectin mediated GalNAc-glycopeptide substrate specificity of GalNAc-T7,GalNAc-T7,can inhibit
same,IC50,GalNAc-T4 lectin domain,5 mM
same,inhibition of lectin mediated GalNAc-glycopeptide substrate specificity of GalNAc-T4,GalNAc-T4,can inhibit
same,MUC1 expression,[1],significant reduction
same,IC50,[2],15 mM
"CC(=O)N[C@H]1[C@@H](OCc2ccccc2)O[C@H](CO)[C@H](O)[C@@H]1O [GalNAcα-benzyl, benzyl-N-acetyl-alpha-D-galactosaminide]",inhibition of O-glycan processing / sialylation,O-glycan processing,inhibit sialylation
CC(=O)N[C@H]1[C@H](OCc2ccccc2)O[C@H](CO)[C@H](O)[C@@H]1O [GalNAcβ-benzyl],viscosity of media,HT-29 MTX cells,less viscous
same,activity of β3Gal-T5 with the compound as acceptor,β3Gal-T5,no or very poor activity
CC(=O)N[C@H]1[C@@H](OCc2ccccc2)O[C@H](CO)[C@@H](O)[C@@H]1O [GlcNAcα-benzyl],inhibition of GalNAc-T4 lectin binding (in words),[3],no inhibition
